Like-named read-outs stand apart in the source and are kept apart here.
Key:
[1] = molecular target: T1, hPR (Homo sapiens, UniProt P06401)
T1 sequence (P06401 1-933): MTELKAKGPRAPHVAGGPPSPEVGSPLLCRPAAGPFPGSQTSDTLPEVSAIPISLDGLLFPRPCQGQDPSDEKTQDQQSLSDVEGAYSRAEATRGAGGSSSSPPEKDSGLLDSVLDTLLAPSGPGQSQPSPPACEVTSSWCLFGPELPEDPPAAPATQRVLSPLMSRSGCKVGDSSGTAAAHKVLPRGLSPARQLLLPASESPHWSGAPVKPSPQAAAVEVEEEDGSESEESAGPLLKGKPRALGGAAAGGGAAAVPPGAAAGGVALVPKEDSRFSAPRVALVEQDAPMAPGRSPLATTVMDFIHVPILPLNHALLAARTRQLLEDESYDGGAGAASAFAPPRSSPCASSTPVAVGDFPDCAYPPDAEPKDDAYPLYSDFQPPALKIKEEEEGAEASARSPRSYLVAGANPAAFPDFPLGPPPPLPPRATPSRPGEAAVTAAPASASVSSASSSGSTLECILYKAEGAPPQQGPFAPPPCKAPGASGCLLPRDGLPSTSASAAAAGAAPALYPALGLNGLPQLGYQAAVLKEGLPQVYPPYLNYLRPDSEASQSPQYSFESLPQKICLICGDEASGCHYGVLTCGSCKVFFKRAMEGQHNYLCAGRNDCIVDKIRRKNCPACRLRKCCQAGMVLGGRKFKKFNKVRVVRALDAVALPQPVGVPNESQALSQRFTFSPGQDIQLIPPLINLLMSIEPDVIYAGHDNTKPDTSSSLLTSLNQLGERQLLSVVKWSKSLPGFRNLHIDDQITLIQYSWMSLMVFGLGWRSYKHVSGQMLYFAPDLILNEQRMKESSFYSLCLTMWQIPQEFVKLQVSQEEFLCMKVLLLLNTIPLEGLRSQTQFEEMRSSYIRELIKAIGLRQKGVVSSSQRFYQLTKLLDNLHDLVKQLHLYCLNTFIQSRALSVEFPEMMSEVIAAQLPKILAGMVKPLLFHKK

[2] = tested on: ovariectomized female rats; assay: Multi-endpoint adult rat model, uterus/breast tissue-selectivity; type: in vivo; details: ratio of relative efficacy to MPA in uterus verse in breast tissue at the same highest dose tested; estrone-treated ovariectomized rats, three days
Source text: In this assay, advantage is taken of the fact that in the uterus, estrogens induce a proliferation and increase in the epithelial cell height and uterine wet weight, which can be antagonized by progestins. In the breast, estrogens induce a proliferation of the ductal network while progestins stimulate the growth of the lobular-alveolar end buds, which grow from the distal end of the ducts. […] Proliferating cells or inhibition of proliferating cells were quantitated either by measurements of cell height in sectioned and stained tissue samples or, in the case of the breast, immuno-histochemically labeled Brdu incorporated nuclei.

[3] = tested on: immature rabbits; assay: McPhail (Clauberg) rabbit assay of progestational activity; type: in vivo; details: Oryctolagus cuniculus; estradiol-primed immature rabbits; glandular changes of the uterus; read-out: potency (MAD in mg/kg), minimum active dose
Method: The superiority of the 7,9-difluoro analogue compounds of the present invention was further characterized utilizing the McPhail rabbit model according to the following illustrative Examples. The Clauberg or McPhail assay is a classic assay utilizing rabbits to measure progestational activity. […] In this assay, immature rabbits are treated initially with estradiol, which induces growth in the uterus. This is followed by a progestin, which causes a large change in the glandular content of the uterus. It is this change in the glandular component which is a measure of the progestational activity of a progestin. The measurement of these glandular changes is carried out histologically using stained sections of the uterus. The in vivo comparison between the new 7,9-difluoro compounds and analogues with substitution patterns different from 7,9-difluoro (U.S. Pat. Nos. 5,693,646 and 5,696,127) is tabulated in Tables 7 and 8. The in vivo potency of the progestins is presented as the minimum active dose (MAD).

[4] = footnote a: EC50 data from U.S. Pat. Nos. 5693646/5693647/5696127; read-out: hPR agonist potencies (EC50 in nM) in the cotransfection assay; cited from earlier work
[5] = footnote b: EC50 data from J. Med. Chem. 41 (1998), 291 and 303; read-out: hPR agonist potencies (EC50 in nM) in the cotransfection assay; cited from earlier work

SMILES | EC50 [1, 4] [nM] | uterus/breast tissue-selectivity [2] | EC50 [1, 5] [nM] | also measured
CC1=CC(C)(C)Nc2ccc3c(c21)C(c1ccccc1)Oc1ccccc1-3 (centres unmarked) [Formula I X=H Ph, reference compound] | 203 | 0.78 | – | –
CC1=CC(C)(C)Nc2ccc3c(c21)C(=Cc1ccccc1C)Oc1ccc(F)cc1-3 [Formula II X=9-F 2-Me-Ph, reference compound] | 4 | 2.3 | – | minimal effective dose [3]: 1.2 mg/kg
CC1=CC(C)(C)Nc2ccc3c(c21)C(=Cc1ccccc1F)Oc1ccccc1-3 [Formula II X=H 2-F-Ph] | – | – | 29 | –
CC1=CC(C)(C)Nc2ccc3c(c21)C(=Cc1ccccc1C)Oc1ccccc1-3 [Formula II X=H 2-Me-Ph] | – | – | 5.7 | –
CC1=CC(C)(C)Nc2ccc3c(c21)C(=Cc1cccc(F)c1)Oc1ccccc1-3 [Formula II X=H 3-F-Ph, reference compound] | – | 0.69 | – | EC50 ([1]; read-out: hPR agonist potencies (EC50 in nM) in the cotransfection assay; footnote b: EC50 data from J. Med. Chem. 41 (1998), 291 and 303; cited from earlier work): 7.6 nM
CC1=CC(C)(C)Nc2ccc3c(c21)C(=Cc1ccc(F)cc1)Oc1ccccc1-3 [Formula II X=H 4-F-Ph] | – | – | 59.5 | –
CC1=CC(C)(C)Nc2ccc3c(c21)C(=Cc1ccccc1)Oc1ccccc1-3 [Formula II X=H Phenyl] | 33 | – | – | –
